In test [1] the test system is MDA-MB-231. In words: Antiproliferative activity against human MDA-MB-231 cells assessed as reduction in cell viability incubated for 72 hrs by MTT assay. Format: functional, cell-based. To be noted: MDA-MB-231, 72 h. Background: Tetrazolium assays rely on reduction of a dye to a coloured formazan, in cell work by metabolically active cells.
For test [2], the system named is MDA-MB-468. As to the kind of experiment: Antiproliferative activity against human MDA-MB-468 cells assessed as reduction in cell viability incubated for 72 hrs by MTT assay. It counts as functional, cell-based. To be noted: MDA-MB-468, 72 h.
Test [3] concerns the target Bromodomain-containing protein 4 (Homo sapiens, UniProt O60885). In words: Inhibition of BRD4 (unknown origin) at 1 uM relative to control.
Test [4] addresses Poly [ADP-ribose] polymerase 1 (Homo sapiens, UniProt P09874). As to the kind of experiment: Inhibition of PARP1 (unknown origin) at 1 uM relative to control.

Consider five compounds from ChEMBL document CHEMBL5154882, “Discovery of 4-Hydroxyquinazoline Derivatives as Small Molecular BET/PARP1 Inhibitors That Induce Defective Homologous Recombination and Lead to Synthetic Lethality for Triple-Negative Breast Cancer Therapy” (J Med Chem, 2022).

Chain of Poly [ADP-ribose] polymerase 1 (P09874 whole entry): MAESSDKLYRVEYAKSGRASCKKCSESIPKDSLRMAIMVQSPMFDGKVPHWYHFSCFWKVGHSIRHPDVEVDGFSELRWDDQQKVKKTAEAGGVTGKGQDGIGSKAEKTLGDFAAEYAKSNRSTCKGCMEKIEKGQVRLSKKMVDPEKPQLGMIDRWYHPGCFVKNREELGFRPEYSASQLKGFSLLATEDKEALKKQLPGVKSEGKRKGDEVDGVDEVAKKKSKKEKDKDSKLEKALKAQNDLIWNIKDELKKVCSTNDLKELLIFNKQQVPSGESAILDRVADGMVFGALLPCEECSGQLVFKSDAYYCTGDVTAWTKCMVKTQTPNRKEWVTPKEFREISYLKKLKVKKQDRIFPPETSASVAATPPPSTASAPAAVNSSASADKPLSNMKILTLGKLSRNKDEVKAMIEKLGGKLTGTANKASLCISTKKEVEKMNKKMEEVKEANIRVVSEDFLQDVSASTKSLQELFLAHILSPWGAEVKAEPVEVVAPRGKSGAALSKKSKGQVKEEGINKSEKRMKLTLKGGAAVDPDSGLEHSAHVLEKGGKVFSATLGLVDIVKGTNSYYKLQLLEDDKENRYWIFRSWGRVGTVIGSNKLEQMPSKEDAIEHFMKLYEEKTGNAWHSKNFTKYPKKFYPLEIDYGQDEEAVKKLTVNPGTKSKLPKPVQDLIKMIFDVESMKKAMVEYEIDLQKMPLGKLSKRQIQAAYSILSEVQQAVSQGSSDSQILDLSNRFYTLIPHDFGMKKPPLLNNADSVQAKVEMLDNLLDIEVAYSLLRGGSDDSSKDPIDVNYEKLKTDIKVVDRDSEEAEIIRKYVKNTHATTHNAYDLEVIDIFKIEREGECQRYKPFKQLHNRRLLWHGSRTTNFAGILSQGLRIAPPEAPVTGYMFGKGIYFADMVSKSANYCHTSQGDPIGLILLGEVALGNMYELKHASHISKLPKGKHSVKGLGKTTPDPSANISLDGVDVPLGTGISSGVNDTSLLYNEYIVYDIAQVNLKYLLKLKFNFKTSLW

The IC50 is the concentration at which inhibition is half-maximal. As usually defined, the inhibition is the percentage by which the read-out fell short of the control. As for `COc1cc(OC)c2c(=O)[nH]c(-c3ccc(Cc4n[nH]c(=O)c5ccccc45)c(F)c3)nc2c1`, the concentration for half-maximal inhibition (IC50) in test [1] is 28.3 µM; in test [2] it was 25.5 µM. In addition, the values for the inhibition in test [3] and in test [4] were 63.5% and 35.9%, respectively.
Taken in the same sequence, the figures for `O=c1[nH]nc(Cc2ccc(F)c(-c3nc4cccc(Cl)c4c(=O)[nH]3)c2)c2ccccc12` were 23.3 µM, 21.6 µM, 40.9% and 72.8%.
As to `COc1cc(OC)c2c(=O)[nH]c(-c3cc(F)cc(Cc4n[nH]c(=O)c5ccccc45)c3)nc2c1`, the IC50 in test [1] was 9.87 µM; in test [2], 7.49 µM. Also, the inhibition in test [3] is 63.4%; in test [4] it was 82.8%.
Regarding `O=c1[nH]c(-c2cc(Cc3n[nH]c(=O)c4ccccc34)ccc2F)nc2ccccc12`, the concentration for half-maximal inhibition (IC50) in test [1] came out at 31.7 µM; in test [2], 29.2 µM. Also, the inhibition in test [3] turned out to be 31.6%; in test [4] it was 59.6%.
As to `O=c1[nH]nc(Cc2cc(F)cc(-c3nc4cccc(Cl)c4c(=O)[nH]3)c2)c2ccccc12`, the concentration for half-maximal inhibition (IC50) in test [1] is 13.4 µM; in test [2], 14.7 µM. In addition, the inhibition is 52.8% in test [3] and 75.1% in test [4].
